Assay results as given in patent US8980902B2, “Poly (ADP-ribose) polymerase (PARP) inhibitors” (Takeda Pharmaceutical Company Limited, priority 2009, dated 2015).

Legend:
Jurkat cell line = assay: PARP cellular chemopotentiation assay (MTS viability, with and without Temozolomide); assay type: cell-based; conditions: Chemopotentiation factor: ratio of EC50 for cell viability without and with 100 μM TMZ, Jurkat cells, 96 hours of treatment
Protocol: Potentiation Factor (PF50) Determination from PARP Cellular Chemopotentiation Assay
Jurkat cell line was maintained according to the supplier (American Type Culture Collection (Rockville, Md.)). Cells were seeded in 96-well tissue culture microplates at 10,000 cells per well and cultured for 24 hours prior to addition of compounds, TMZ (Temozolomide) or DMSO (dimethylsulfoxide) vehicle. After 96 hours of treatment, the conversion of MTS ([3-(4,5-dimethylthiazol-2-yl)-5-(3-carboxymethoxyphenyl)-2-(4-sulfophenyl)-2H-tetrazolium, inner salt], Promega, Madison, Wis.) by metabolically active cells was determined through measuring the OD490 nm with a Spectramax microplate reader (Molecular Devices, San Diego, Calif.). To generate concentration-response curves, cells were treated in duplicate with a range of serial compound dilutions (final DMSO concentration was 0.5%) in the absence or presence of 100 μM TMZ chemoreagent. The percentage of viable cells per well was calculated by correction for background and normalizing against DMSO-treated cells. EC50 values for inhibition of cell viability were calculated using XLfit4 MicroSoft Excel curve-fitting software. Chemopotentiation factor PF50 was calculated as the ratio of EC50 values of cells co-treated without and with TMZ, respectively.
(§1) Here, pIC50=−log10 IC50, where IC50 is the molar concentration of the compound at 50% inhibition.

PARP = biological target: T1, PARP (Homo sapiens, UniProt P09874); assay: PARP ELISA (ELISA-based colorimetric PARP/Apoptosis Assay kit), inhibition of PARP catalytic activity; assay type: biochemical; conditions: pIC50 = -log10 IC50 (molar); 0.1 nM PARP stock, 100 μM NAD+ stock with activated DNA, 10 min catalysis
T1 construct: purchased Trevigen 4684-096-01 (enzyme); kit 4684-096-K HT
Protocol: Inhibition Constant (IC50) from PARP ELISA
Inhibition of PARP catalytic activity was determined by use of an ELISA-based colorimetric PARP/Apoptosis Assay kit (part number 4684-096-K HT, Trevigen). To each histone coated well in the 96-well plate supplied by the manufacturer (part number 4677-096-P) is added 39 μL of PARP buffer (part number 4671-096-02) and 1 μL of test compound dissolved in DMSO (diluted serially 3-fold 11 times). After mixing, 5 μL of 0.1 nM PARP (part number 4684-096-01) is added and the solution allowed to stand at ambient temperature for 10 minutes. PARP catalysis is initiated with the addition of 5 μL of 100 μM β-nicotinamide adenine dinucleotide (NAD+) (part number 4684-096-02) with activated DNA (part number 4671-096-06). After 10 minutes of catalysis the reaction is quenched by solvent aspiration followed by irrigation of the assay wells 4 times with phosphate buffered saline (PBS) containing 0.1% t-octylphenoxypolyethoxyethanol (Triton® X-100). Mouse Anti-poly ADP ribose (PAR) monoclonal antibody, goat antimouse immunoglobulin G (IgG)-horse radish peroxidase (HRP) conjugate and HRP substrate are added according to the manufacture's specifications to generate a colorimetric signal proportional to PARP catalytic activity. An IC50 for the test compound is calculated from the equation Absorbance=(Amax−background)/(1+([cmpd]/IC50)^n)+background fit to the 12 point test compound concentration gradient via nonlinear least squares.
as §1

T1 sequence (P09874 whole entry): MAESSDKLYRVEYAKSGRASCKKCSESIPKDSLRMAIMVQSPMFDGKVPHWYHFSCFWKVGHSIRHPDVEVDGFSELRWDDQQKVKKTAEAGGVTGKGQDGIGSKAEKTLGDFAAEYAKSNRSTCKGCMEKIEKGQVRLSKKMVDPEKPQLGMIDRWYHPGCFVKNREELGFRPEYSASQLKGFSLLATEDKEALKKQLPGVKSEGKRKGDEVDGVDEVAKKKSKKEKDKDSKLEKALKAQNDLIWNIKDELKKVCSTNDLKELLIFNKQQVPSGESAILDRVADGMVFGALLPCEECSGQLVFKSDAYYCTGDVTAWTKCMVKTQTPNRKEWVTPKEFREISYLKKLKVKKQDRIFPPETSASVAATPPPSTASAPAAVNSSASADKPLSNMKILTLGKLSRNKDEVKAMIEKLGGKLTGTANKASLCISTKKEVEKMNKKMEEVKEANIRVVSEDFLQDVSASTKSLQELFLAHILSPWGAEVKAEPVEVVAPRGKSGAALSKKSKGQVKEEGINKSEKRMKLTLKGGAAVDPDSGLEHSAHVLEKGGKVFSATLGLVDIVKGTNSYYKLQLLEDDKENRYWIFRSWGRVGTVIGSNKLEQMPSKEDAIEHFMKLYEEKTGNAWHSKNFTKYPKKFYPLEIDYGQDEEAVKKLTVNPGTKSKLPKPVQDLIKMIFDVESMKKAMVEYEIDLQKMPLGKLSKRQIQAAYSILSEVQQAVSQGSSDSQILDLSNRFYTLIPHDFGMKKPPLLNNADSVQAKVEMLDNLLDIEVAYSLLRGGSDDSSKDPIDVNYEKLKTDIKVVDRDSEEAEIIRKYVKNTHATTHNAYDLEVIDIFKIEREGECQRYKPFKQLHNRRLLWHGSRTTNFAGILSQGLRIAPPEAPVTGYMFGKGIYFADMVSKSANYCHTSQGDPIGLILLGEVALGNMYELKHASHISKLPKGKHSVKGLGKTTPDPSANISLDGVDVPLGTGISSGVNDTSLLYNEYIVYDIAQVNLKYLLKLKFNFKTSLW

Row | IC50 (PARP) [nM] | Compound | PF50 (Jurkat cell line)
1 | ≤ 10 | CCNC(=O)c1ccc(N2CCN(Cc3cnc4c(c3)[nH]c(=O)n3cccc43)CC2)cc1 [Example 2, N-ethyl-4-(4-((6-oxo-5,6-dihydropyrido[2,3-e]pyrrolo[1,2-c]pyrimidin-3-yl)methyl)piperazin-1-yl)benzamide] | >1000
2 | ≤ 10 | CNC(=O)c1ccc(N2CCN(Cc3cnc4c(c3)[nH]c(=O)n3cccc43)CC2)cc1 [Example 3, N-methyl-4-(4-((6-oxo-5,6-dihydropyrido[2,3-e]pyrrolo[1,2-c]pyrimidin-3-yl)methyl)piperazin-1-yl)benzamide] | >24000
3 | ≤ 10 | O=C(NC1CC1)c1ccc(N2CCN(Cc3cnc4c(c3)[nH]c(=O)n3cccc43)CC2)cc1 [Example 4, N-cyclopropyl-4-(4-((6-oxo-5,6-dihydropyrido[2,3-e]pyrrolo[1,2-c]pyrimidin-3-yl)methyl)piperazin-1-yl)benzamide] | >1000
4 | ≤ 10 | CNC(=O)c1ccc(N2CCN(Cc3cnc4c(c3)[nH]c(=O)n3cccc43)CC2)c(Cl)c1 [Example 5, 3-chloro-N-methyl-4-(4-((6-oxo-5,6-dihydropyrido[2,3-e]pyrrolo[1,2-c]pyrimidin-3-yl)methyl)piperazin-1-yl)benzamide] | >63
5 | ≤ 10 | CNC(=O)c1ccc(N2CCN(Cc3cnc4c(c3)[nH]c(=O)n3cccc43)CC2)c(C)c1 [Example 7, N,3-dimethyl-4-(4-((6-oxo-5,6-dihydropyrido[2,3-e]pyrrolo[1,2-c]pyrimidin-3-yl)methyl)piperazin-1-yl)benzamide] | >900
6 | ≤ 10 | CNC(=O)c1ccc(N2CCN(Cc3cnc4c(c3)[nH]c(=O)n3cccc43)CC2)c(F)c1 [Example 9, 3-fluoro-N-methyl-4-(4-((6-oxo-5,6-dihydropyrido[2,3-e]pyrrolo[1,2-c]pyrimidin-3-yl)methyl)piperazin-1-yl)benzamide] | >16

Row | Compound | IC50 (PARP) [nM] | PF50 (Jurkat cell line)
7 | CCNC(=O)c1ccc(N2CCN(Cc3cnc4c(c3)[nH]c(=O)n3cccc43)CC2)c(Cl)c1 [Example 6, 3-chloro-N-ethyl-4-(4-((6-oxo-5,6-dihydropyrido[2,3-e]pyrrolo[1,2-c]pyrimidin-3-yl)methyl)piperazin-1-yl)benzamide] | ≤ 10 | >1000
8 | CCNC(=O)c1ccc(N2CCN(Cc3cnc4c(c3)[nH]c(=O)n3cccc43)CC2)c(C)c1 [Example 8, N-ethyl-3-methyl-4-(4-((6-oxo-5,6-dihydropyrido[2,3-e]pyrrolo[1,2-c]pyrimidin-3-yl)methyl)piperazin-1-yl)benzamide] | ≤ 10 | >1600
9 | CCNC(=O)c1ccc(N2CCN(Cc3cnc4c(c3)[nH]c(=O)n3cccc43)CC2)c(F)c1 [Example 10, N-ethyl-3-fluoro-4-(4-((6-oxo-5,6-dihydropyrido[2,3-e]pyrrolo[1,2-c]pyrimidin-3-yl)methyl)piperazin-1-yl)benzamide] | ≤ 10 | >60
